Assay results from US20090170934A1, “MANUFACTURING PROCESS FOR NO-DONATING COMPOUNDS SUCH AS NO-DONATING DICLOFENAC” (NICOX SA, priority 2002, published 2009).

**Q.** Which melting point does the source give for `O=C(Cc1ccccc1Nc1c(Cl)cccc1Cl)OCCOCCO[N+](=O)[O-]` [Compound IVa, 2-[2-(nitrooxy)ethoxy]ethyl {2-[(2,6-dichlorophenyl)amino]phenyl}acetate] here?
**A.** 73 °C
